Tests used:
CRBN-ASS1 interaction [1] = target: T1, CRBN-ASS1 interaction (Homo sapiens, UniProt Q96SW2); assay: MAPPIT cell microarray screen of ORF library for ligand-induced CRBN neosubstrates; format: cell-based; settings: HEK293T cells, CC-220 at 10 μM, fluorescence reporter read 48 hours later
T1 construct: expressed in transfected cells; host or cells: HEK293T

ASS1 = ASS1 (Homo sapiens, UniProt P00966+Q96SW2); assay: ASS1 degradation by Western blot in HEK293T cells co-transfected with FLAG-ASS1 and HA-CRBN; format: cell-based; settings: 0.3-30 μM, 24 hours
Experimental: FIG. 4 Ligand-induced recruitment of ASS1 to CRBN is associated with degradation of ASS1 in living cells. In this study we examined whether ligand-induced recruitment of ASS1 to CRBN could lead to subsequent ASS1 degradation (as triggered by interaction with the CRBN E3 ligase). HEK293 cells were co-transfected with cDNA constructs encoding Flag-tagged ASS1 and HA-tagged CRBN and exposed to increasing concentration of CC220 for 24 hours. Samples were generated for Western blot analysis to determine steady state levels of ASS1 across the different experimental conditions, assessed using and anti-Flag antibody. As shown, loss of ASS1 expression (but not actin control protein expression) was observed specifically in response to CC220 exposure, and in a dose-dependent manner.
In this study we examined whether CC220 CRBN-ligand-induced recruitment of ASS1 to CRBN could lead to subsequent ASS1 degradation (as triggered by interaction with the CRBN E3 ligase). For this analysis, cells were transfected with FLAG-tagged ASS1 and HA-tagged CRBN encoding constructs, and any change in steady state levels of ASS1 in response to incubation of cells with CC220 for a specified time was assessed by Western blot analysis. […] Next, cells were lysed and a fraction of the lysate was analyzed via SDS-PAGE and Western Blot analysis with an anti-FLAG antibody (Sigma). […]

CRBN = target: T2, CRBN (Homo sapiens, UniProt Q96SW2); assay: MAPPIT-like ligand competition assay for CRBN binding in HEK293T cells (trimethoprim-lenalidomide hybrid ligand, luciferase reporter); format: cell-based; settings: competition for binding to CRBN
T2 construct: expressed in transfected cells; host or cells: HEK293T

CRBN-ASS1 interaction [2] = target: T1, CRBN-ASS1 interaction; assay: Co-immunoprecipitation of Flag-ASS1 and HA-CRBN in HEK293T cells; format: cell-based; settings: 1 μM and 3 μM, 24 hours
Text: FIGS. 3A-B Ligand-induced CRBN-ASS1 interaction in living cells—as assessed by co-immunoprecipitation analysis. In this study we examined the ability of Flag-tagged ASS1 (or Flag tagged gp130-ASS1 fusion protein, as identified in the assay described in FIG. 1) and HA-tagged CRBN to interact in living cells upon transfection and expression of each construct in HEK293T cells—in the presence or absence of the CRBN IMiD ligand CC220. Ability of HA-tagged CRBN to interact in response to CC220 with the known CRBN neosubstrate IKZF3 was also examined (with IKZF3 expressed as a Flag-tagged IKZF3 fusion protein). […] Western analysis was performed with an anti-HA antibody to determine extent of immunoprecipitated CRBN in each sample (expected to vary in dependence of CC220 exposure) and an anti-Flag antibody to determine extent of immunoprecipitated Flag-ASS1, Flag-gp130-ASS1 or Flag-IKZF3 in each sample (which would be expected to be the same). […]
In this study we assessed via co-immunoprecipitation of protein complexes the ability of the CRBN ligand CC220 to induce an interaction with ASS1 when expressed in HEK293 cells. […] FLAG-tagged ASS1 was detected using an anti-FLAG Ab (SIGMA) respectively (FIG. 3A, lower panel). […]

[3] = patients with AL amyloidosis during lenalidomide treatment; cited from earlier work

Structure (SMILES)	ligand-induced ASS1 interaction with CRBN in cell microarray screen (in words) (CRBN-ASS1 interaction [1])	ASS1 steady state levels (Western blot, in words) (ASS1)	inhibition of hybrid-ligand induced luciferase reporter activation (in words) (CRBN)	recruitment of ASS1 into CRBN complex by co-immunoprecipitation (in words) (CRBN-ASS1 interaction [2])	patients showing worsening of kidney function [3] [%]	patients with severe kidney dysfunction [3] [%]
O=C1CC[C@H](N2Cc3c(OCc4ccc(CN5CCOCC5)cc4)cccc3C2=O)C(=O)N1 [CC-220]	identified Argininosuccinate Synthase 1 (ASS1) as a novel CC220-induced CRBN neosubstrate	decrease in a dose responsive manner	specifically inhibit hybrid-ligand induced luciferase reporter activation in a dose dependent manner	specifically induces the recruitment of ASS1 into a CRBN-CC220 complex	–	–
Nc1cccc2c1CN(C1CCC(=O)NC1=O)C2=O (stereo not drawn) [LEN, lenalidomide]	–	–	–	–	66	32

From US12546776B2, “Modulation of protein degradation” (Orionis Biosciences, Inc., priority 2019, dated 2026)
